Here are results for 39 molecules from PubChem BioAssay AID1648 (Sanford-Burnham Center for Chemical Genomics, 2009).

The source made the active and inactive calls. The rule behind the calls is not given here.

The target in the assay is Serine/threonine-protein kinase mTOR (Homo sapiens) (UniProt P42345). Put plainly: mTOR FRB domain ligand binding – biophysical, NMR (AID 1648). The conditions noted are these: NMR binding to FRB domain, chemical shift.
Sequence of Serine/threonine-protein kinase mTOR (Homo sapiens) (P42345 2015-2114): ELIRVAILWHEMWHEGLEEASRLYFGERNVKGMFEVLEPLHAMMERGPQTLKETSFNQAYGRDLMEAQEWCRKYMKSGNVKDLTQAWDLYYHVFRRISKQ
In the case of `CCOC(=O)c1c(C)n([O-])c2ccccc2[n+]1=O`, the Kd (usually a measure of binding affinity in units of concentration) was > 4 mM (inactive).
Take `O=C(Nc1cccnc1)c1cccs1`: the Kd was > 4 mM (inactive).
Turning to `CCC(=O)OC1[C@@H]2CC3=C4CC(=O)O[C@@H](c5ccoc5)[C@]4(C)CCC3C(C)(C2=O)[C@@H](CC(=O)OC)C1(C)C` (some centres undefined), the Kd was > 4 mM (inactive).
Regarding `Cn1nccc1N`, the Kd is > 4 mM (inactive).
Under `O=C(O)C(Cc1cnc[nH]1)N1C(=O)c2ccccc2C1=O` (centres undefined) stands > 4 mM (inactive); under `O=c1n(-c2ccccc2)c(=O)n2n1CCCC2`, > 4 mM (inactive); under `CC(C)C1COc2cc3oc(=O)ccc3cc2O1` (centres undefined), > 4 mM (inactive).
With `NCCCCNCCCN`, the Kd was > 4 mM (inactive).
In the case of `Nc1nnc(C(F)(F)F)s1` it was > 4 mM (inactive).
Under `Cc1noc(C)c1C(=O)N1CCC2(CC1)OCCO2` stands > 4 mM (inactive); under `Nc1nc(-c2ccc(Cl)cc2)nn1C(=O)c1cccnc1`, > 4 mM (inactive).
As for `COC(=O)c1cccc(N)c1`, the Kd is > 4 mM (inactive).
Under `COc1ccccc1/C=C\C(=O)O` stands > 4 mM (inactive); under `O=C(Nc1ccccc1)c1cnc2n(c1=O)CCS2`, > 4 mM (inactive); under `NC(=O)NC(=O)Nc1ccc(Cl)cc1`, > 4 mM (inactive).
`O=C1CCCc2c(O)cccc21`: the Kd was > 4 mM (inactive).
Under `Oc1cnc2ccccc2c1CN1CCOCC1` stands > 4 mM (inactive).
Under `O=C(Nc1ccc(N2CCOCC2)cc1)c1cnsn1` stands > 4 mM (inactive).
Under `CC(=O)c1c(O)cc(O)cc1O` stands > 4 mM (inactive); under `Cn1nc(C(=O)N2CCCC2)c2ccccc2c1=O`, > 4 mM (inactive); under `c1coc(-c2nc(-c3ccncc3)no2)c1`, > 4 mM (inactive).
Consider `Cc1nnc(NCc2ccc3c(c2)OCO3)[nH]c1=O`, for which the Kd is > 4 mM (inactive).
Under `CC1(C)C(=O)C=C[C@@]2(C)C1C[C@@H](O)[C@]1(C)C2CC[C@@]2(C)[C@H](c3ccoc3)OC(=O)[C@H]3O[C@]321` (some centres undefined) stands > 4 mM (inactive); under `S=C(NC1=NCCS1)Nc1ccccc1`, > 4 mM (inactive); under `CNC(=O)N1CCN(C(=O)NC)CC1`, > 4 mM (inactive).
Under `O=C(O)c1ccc2ncccc2c1` stands > 4 mM (inactive); under `Fc1ccc(Br)cc1/C=N/n1cnnc1`, > 4 mM (inactive).
Under `CC(C)=CC(=O)Nc1ccccc1C(N)=O` stands > 4 mM (inactive).
For `Cc1cc(/C=N/O)nc(=O)[nH]1`, the Kd is > 4 mM (inactive).
Consider `CC1(C)C(=O)CC[C@@]2(C)C1C[C@@H](O)[C@@]1(C)C3=CC(=O)O[C@@H](c4ccoc4)[C@]3(C)CCC21` (some centres undefined), for which the Kd is > 4 mM (inactive).
In the case of `NC[C@H]1O[C@H](O[C@H]2[C@H](O)[C@@H](O[C@H]3O[C@H](CO)[C@@H](O)[C@H](N)[C@H]3O)[C@H](N)C[C@@H]2N)[C@H](N)[C@@H](O)[C@@H]1O` it was > 4 mM (inactive).
In the case of `COc1ccc(S(=O)(=O)N2CCC(C(N)=O)CC2)cc1` it was > 4 mM (inactive); in that of `Cc1cc(N2C(=O)CCC2=O)n(-c2ccccc2)n1`, > 4 mM (inactive); in that of `C=C1C2CC[C@@]3(C)[C@H](c4ccoc4)OC(=O)C[C@]13O[C@H]1C[C@H](OC(C)=O)C(C)(C)[C@H](CC(=O)OC)[C@@]21C`, > 4 mM (inactive).
In the case of `Cc1nnsc1C(=O)Nc1ccccc1[N+](=O)[O-]` it was > 4 mM (inactive).
In the case of `CC1=NN2C(=N)/C(=C\c3cccs3)C(=O)N=C2S1`, the Kd was > 4 mM (inactive).
In the case of `O=C(O)c1cc(O)c(O)c(O)c1` it was > 4 mM (inactive).
In the case of `Nc1cccnc1N1CCOCC1` it was > 4 mM (inactive).
Regarding `NS(=O)(=O)c1ccc(N2CCCC2=O)cc1`, the Kd is > 4 mM (inactive).
